Where two headings read alike, the source gives them in different places.

In test [1] the test system is Rhizoctonia solani. Briefly: Test Example 6: control test on paddy rice sheath blight, nursery box application. The class given is in vivo. The conditions noted are these: nursery box application of granule, 7.5 gai/box. On the procedure: After 30 days from the treatment, Rhizoctonia solani cultured on a rice chaff/bran medium was inoculated on the basal of the rice plant. After 10 days from the inoculation, the extended lesion length of sheath blight of the whole stem was examined. The control value was calculated according to the following equation (3 replications).
(§1) Control Value=(1−average lesion length per a stem in the treated plot/average lesion length per a stem in the untreated plot)×100

Test [2] relates to Pyricularia oryzae. Format: in vivo. The conditions noted are these: in vivo.
For test [3], the system named is Pyricularia oryzae. Format: in vivo.
Test [4] relates to Pyricularia oryzae. Put plainly: whole plant or invertebrate. The conditions noted are these: for Control value: 60 ppm. Format: in vivo.
Another test relates to Pythium sp. Briefly: Test Example 9: control test on seedling blight (Pythium sp), irrigation. Format: in vivo. The conditions noted are these: irrigation 500 ml per box. As to the method: 150 g of rice seeds of rice (cultivar: Nihonbare) per a box was sowed on a commercial nursery box. After the sowing, the box was treated by irrigation with a compound solution which was diluted to the prescribed concentration at a ratio of 500 ml per a box before covering the seeds with soil. Infected soil, which was made by adding sterilized water to Pythium sp cultured on a PDA medium and pulverizing whole medium and mixing to a commercial soil, was used for a bed soil. After covering the seeds with soil, the seeds were incubated at 30 degree centigrade for 2 days and then arranged under a condition of 5 degree centigrade for 2 days to enhance disease emergence. After the low temperature treatment, the seeds were grown in a greenhouse.
Control Value=(1−number of infected seedlings in the treated plot/number of infected seedlings in the untreated plot)×100

Test [5] has as its system Rhizoctonia solani. Put plainly: Test Example 5: control test on paddy rice sheath blight, submerged application. Format: in vivo. To be noted: submerged application of granule, 225 gai/10a. On the procedure: After 14 days from the treatment, Rhizoctonia solani cultured on a rice chaff/bran medium was inoculated on the basal of the rice plant. After 10 days from the inoculation, the extended lesion length of sheath blight of the whole stem was examined. The control value was calculated according to the following equation (3 replications).
as §1

The subject of test [6] is Rhizoctonia solani. Briefly: Test Example 4: control test on paddy rice sheath blight, spraying. The class given is in vivo. To be noted: 60 ppm. As to the method:
A compound solution of a prescribed concentration was sprayed on three 1/5000a rice pots (cultivar: Koshihikari; 4 leaf stage). After one day from the spraying, Rhizoctonia solani cultured on a rice chaff/bran medium was inoculated on the basal of the rice plant. After 10 days from the inoculation, the extended lesion length of sheath blight of the whole stem was examined. The control value was calculated according to the following equation (3 replications).
as §1

Test [7] relates to Pyricularia oryzae. Format: in vivo. To be noted: in vivo. This is another data set of the same source.
Another test has as its system Rhizopus chinensis. Briefly: Test Example 8: control test on seedling blight (Rhizopus sp), irrigation. Format: in vivo. The conditions noted are these: irrigation 500 ml per box. As to the method:
150 g of rice seeds (cultivar: Nihonbare) per a box was sowed in a commercial nursery box. After the sowing, the box was treated by irrigation with a compound solution which was diluted to the prescribed concentration at a ratio of 500 ml per a box before covering the seeds with soil. Infected soil, which was made by adding sterilized water to Rhizopus chinensis cultured on a PDA medium and pulverizing whole medium and mixing to a commercial soil, was used for a bed soil. For covering the seeds, a commercial soil was used as it was. After covering the seeds with soil, the seeds were incubated at 32 degree centigrade for 2 days and then grown in a greenhouse.
After 18 days from the sowing, the severity index for 300 seedlings per each compound was examined in the following criteria. The control value was calculated according to the following equation from the average severity obtained by averaging the severity index of each seedling.
Severity index 0: No lesion • 1: Root browning or fat root observed • 2: Defective growth • 3: Withered to death
(§2) Control Value=(1−average severity in the treated plot/average severity in the untreated plot)×100

Test [8] has as its system bacterial seedling blight. Put plainly: Test Example 10: control test on bacterial seedling blight, seed immersion. Format: in vivo. To be noted: seed immersion 24 hours. On the procedure:
150 g of dry rice seeds of naturally infected with bacterial seedling blight (cultivar: Nihonbare) was immersed in a compound solution which was diluted with water to have a prescribed concentration at a volume ratio of 1:1 (liquid temperature; 20 degree centigrade) for 24 hours and air-dried. Subsequently, the seeds were soaked in water at 15 degree centigrade for 4 days and subjected to a sprouting in water at 30 degree centigrade for 24 hours, and then sowed in a nursery box. After the sowing, the seeds were incubated at 30 degree centigrade for 2 days and grown in a greenhouse. After 21 days from the sowing, the severity index for 300 seedlings per each compound was examined on the basis of the following criteria, and the control value was calculated according to the following equation from the average severity obtained by averaging the severity index of each seedling.
Severity index 0: healthy seedling • 1: yellowing or etiolated seedling • 2: dead seedling (withered)
as §2

Another test deals with clubroot. Briefly: Test Example 11: control test on clubroot of cabbages, soil treatment. Format: in vivo, Plasmodiophora brassicae. To be noted: dust formulation mixed in soil, 60 gai/10a. As to the method:
A dust formulation in a prescribed amount was mixed in soil and cabbage seedlings (cultivar: Shiki-dori) were planted in the field where was recognized to be infected by clubroot. After 60 days from the treatment, plants were picked out, and clubroot formation was examined according to the degree of severity. The control value was calculated according to the following equation from the average severity obtained by averaging the severity index in each plot.
Severity index 0: No clubroot formed • 1: Cluroot was formed at a portion of from not less than 1% to less than 25% of the whole root • 2: Cluroot was formed at a portion of from not less than 25% to less than 50% of the whole root • 3: Cluroot was formed at a portion of from not less than 50% to less than 75% of the whole root • 4: Cluroot was formed at a portion of not less than 75% of the whole root
as §2

On to `C=C(Cl)COC(=O)NC(CNC(=O)c1ccc(C)cc1)C(C)C` (centres unmarked) [Compound 15], for which the Control value came out at 3 in the test on Rhizoctonia solani [1]; 95 with Pyricularia oryzae [2]; 94 with Pyricularia oryzae [4]; 4 with Pythium sp (60 ppm); 5 with Rhizoctonia solani [5]; 4 with Rhizoctonia solani [6]. Also, the Control value in the test on Pyricularia oryzae [7] turned out to be 95. In the test on Pyricularia oryzae [3] (in vivo), the “Effect (class of control value)” value is on record as “A (key: A: Not less than 80%; B: Not less than 50% to less than 80%; C: Less than 50%)”.

Consider `Cc1ccc(C(=O)NC(CNC(=O)OC2CCCCC2Cl)C(C)C)cc1` (centres unmarked) [Compound 17, N-(2-chlorocyclohexyloxycarbonyl)-N′-(4-methylbenzoyl)-3-methyl-1,2-butanediamine], for which the results for the Control value with Rhizopus chinensis (60 ppm) and in the test with Rhizoctonia solani [6] were 3 and 5, respectively. The “Effect (class of control value)” value in the test with Pyricularia oryzae [3] (rice blast, sprayed at 60 ppm active ingredient, lesions after 7 days) is reported as “A (Not less than 80%)”. In the test on Pyricularia oryzae [4] (Pyricularia oryzae, 168 h, read-out: Control value), the pest or weed control at 60 ppm is 95%.

For `CC(C)C(CNC(=O)c1cc2ccccc2o1)NC(=O)OCC(F)(F)F` (centres unmarked) [Compound 28], the Control value in the test with Rhizoctonia solani [1] turned out to be 5; in the test with Pyricularia oryzae [2], 96; in [8] (60 ppm) it was 6; in the test with Pyricularia oryzae [4], 97; in the test with Rhizoctonia solani [5], 6; with Rhizoctonia solani [6], 6. This compound also gave a Control value with Pyricularia oryzae [7] of 96. Besides, the “Effect (class of control value)” value with Pyricularia oryzae [3] (in vivo) is “A (key: A: Not less than 80%; B: Not less than 50% to less than 80%; C: Less than 50%)”.

Consider `CC(C)C(CNC(=O)c1cc2ccccc2s1)NC(=O)OCC(F)(F)F` (centres unmarked) [Compound 34], for which the Control value worked out at 3 in the test with Rhizopus chinensis (60 ppm), 97 in the test with Pyricularia oryzae [4] and 7 in the test on Rhizoctonia solani [6]. For the same compound, the “Effect (class of control value)” value with Pyricularia oryzae [3] (in vivo) is on record as “A (key: A: Not less than 80%; B: Not less than 50% to less than 80%; C: Less than 50%)”.

Take `O=[N+]([O-])c1ccc(NS(=O)(=O)c2ccc(Cl)c(C(F)(F)F)c2)c(Cl)c1` [Flusulfamide]: in the test on clubroot, the Control value worked out at 93.

Regarding `Cc1cc(O)no1` [Hydroxyisoxazole, reference compound], the Control value in the test on Pythium sp (800 ppm) is given as 90.

Turning to `CC(C)NC(=O)N1CC(=O)N(c2cc(Cl)cc(Cl)c2)C1=O` [Iprodione, reference compound], the Control value in the test with Rhizopus chinensis (1000 ppm) is 89.

As for `CCn1cc(C(=O)O)c(=O)c2cc3c(cc21)OCO3` [Oxolinic acid, reference compound], the Control value in test [8] (500 ppm) is 89.

`N#Cc1c(Cl)c(Cl)c(Cl)c(C#N)c1Cl` [TPN, reference compound] displayed a Control value in the test on Rhizopus chinensis (800 ppm) of 87.

The values above are taken from patent publication US20090023667A1 (priority 2005, published 2009).
